Assay results published in patent US20260258032A1, “TYROSINE KINASE 2 INHIBITORS AND USES THEREOF” (BIOGEN MA INC., priority 2022, published 2026).
Structures can show the parent of a compound that is named as a salt.

target: T1, JH2 domain of human Tyk2 (Homo sapiens, UniProt P29597); test: JH2 biochemical assay (TR-FRET probe displacement); assay type: binding; settings: JH2 biochemical assay
T1 construct: 10×His-tagged TYK2 JH2 domain (amino acid 575-876)
Description: The inhibitory potency of compounds of the disclosure against the kinase activity of recombinantly generated JH2 domain of human Tyk2 was evaluated in a plate-based assay using a TR-FRET assay platform. Briefly, 2 nM of recombinant JH2 domain [10×His-tagged TYK2 JH2 domain (amino acid 575-876)] was combined with 2 nM probe ((S)-6-amino-9-(2-carboxy-4-((1-(3-(8-methyl-5-(methylamino)-8H-imidazo[4,5-d]thiazolo[5,4-b]pyridin-2-yl)phenyl)ethyl)carbamoyl)phenyl)-3-iminio-5-sulfo-3H-xanthene-4-sulfonate), 0.1 nM Tb-labeled anti-His antibody, and compounds of disclosure for 60 minutes. Compounds are tested at either […] top concentration, 10 points of 3-fold dilution. The TR-FRET signal […] by compounds and signal was calculated by taking the ratio of fluorescence at 520 nm and 495 nm. The data was normalized and the percent activity versus log concentration of compound was fitted with a 4-parameter logistic model to generate IC50 curves.

T1 sequence (P29597 575-876): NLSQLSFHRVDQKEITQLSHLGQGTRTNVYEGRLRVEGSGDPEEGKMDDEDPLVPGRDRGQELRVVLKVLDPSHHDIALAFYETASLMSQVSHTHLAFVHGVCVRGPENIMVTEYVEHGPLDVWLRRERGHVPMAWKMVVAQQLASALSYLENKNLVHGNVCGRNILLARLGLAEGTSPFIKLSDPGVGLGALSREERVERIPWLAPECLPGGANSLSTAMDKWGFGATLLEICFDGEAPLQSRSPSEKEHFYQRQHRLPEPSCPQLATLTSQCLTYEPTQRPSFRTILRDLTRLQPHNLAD

Structure (SMILES)	IC50 [nM]
CC(=O)Nc1cc2c(cn1)C1(CCCC1)CN2c1nccc(C(C)(F)F)n1 [Example 43, N-(1′-(4-(1,1-difluoroethyl)pyrimidin-2-yl)-1′,2′-dihydrospiro[cyclopentane-1,3′-pyrrolo[3,2-c]pyridin]-6′-yl)acetamide]	100 to 1000
CC(=O)Nc1cc2c(cn1)C1(CC1)CN2c1cc(C)cc(-c2cnn(C3COC3)c2)n1 [Example 265, N-(1′-(4-methyl-6-(1-(oxetan-3-yl)-1H-pyrazol-4-yl)pyridin-2-yl)-1′,2′-dihydrospiro[cyclopropane-1,3′-pyrrolo[3,2-c]pyridin]-6′-yl)acetamide trifluoroacetate]	10 to 100
CC(=O)Nc1cc2c(cn1)C1(CCOCC1)CN2c1nccc(C(C)(F)F)n1 [Example 46, N-(1′-(4-(1,1-difluoroethyl)pyrimidin-2-yl)-1′,2,2′,3,5,6-hexahydrospiro[pyran-4,3′-pyrrolo[3,2-c]pyridin]-6′-yl)acetamide]	≥ 1000
CC(=O)Nc1cc2c(cn1)C1(CC1)CN2c1cc(C)nc(C2CCCCN2C)n1 (stereo not shown) [Example 118, N-(1′-(6-methyl-2-(1-methylpiperidin-2-yl)pyrimidin-4-yl)-1′,2′-dihydrospiro[cyclopropane-1,3′-pyrrolo[3,2-c]pyridin]-6′-yl)acetamide]	≥ 1000
CC(=O)Nc1cc2c(cn1)C1(CC1)CN2c1cc(NC(C)=O)nc(C(C)(F)F)n1 [Example 15, N-(1′-(6-acetamido-2-(1,1-difluoroethyl)pyrimidin-4-yl)-1′,2′-dihydrospiro[cyclopropane-1,3′-pyrrolo[3,2-c]pyridin]-6′-yl)acetamide]	≤ 10
CC(=O)Nc1cc2c(cn1)C1(CC1)CN2c1cc(C)nc(OCC(F)(F)F)n1 [Example 361, N-(1′-(6-methyl-2-(2,2,2-trifluoroethoxy)pyrimidin-4-yl)-1′,2′-dihydrospiro[cyclopropane-1,3′-pyrrolo[3,2-c]pyridin]-6′-yl)acetamide trifluoroacetate]	10 to 100
COc1ccc(-c2cc(C)cc(N3CC4(CC4)c4cnc(NC(C)=O)cc43)n2)cn1 [Example 267, N-(1′-(6′-methoxy-4-methyl-[2,3′-bipyridin]-6-yl)-1′,2′-dihydrospiro[cyclopropane-1,3′-pyrrolo[3,2-c]pyridin]-6′-yl)acetamide trifluoroacetate]	100 to 1000
CC(=O)Nc1cc2c(cn1)C1(CC1)CN2c1cc(C)cc(-c2cn(C)nc2C(F)(F)F)n1 [Example 261, N-(1′-(4-methyl-6-(1-methyl-3-(trifluoromethyl)-1H-pyrazol-4-yl)pyridin-2-yl)-1′,2′-dihydrospiro[cyclopropane-1,3′-pyrrolo[3,2-c]pyridin]-6′-yl)acetamide trifluoroacetate]	≥ 1000
CC(=O)Nc1cc2c(cn1)C1(CC1)CN2c1nc(C)cc(=O)[nH]1 [Example 135, N-(1′-(4-methyl-6-oxo-1,6-dihydropyrimidin-2-yl)-1′,2′-dihydrospiro[cyclopropane-1,3′-pyrrolo[3,2-c]pyridin]-6′-yl)acetamide]	≥ 1000
CC(=O)Nc1cc2c(cn1)C1(CC1)CN2c1cc(O[C@@H]2COC[C@H]2F)nc(C(C)(F)F)n1 (racemic) [Example 150, Trans-rac-N-(1′-(2-(1,1-difluoroethyl)-6-(((3RS,4R)-4-fluorotetrahydrofuran-3-yl)oxy)pyrimidin-4-yl)-1′,2′-dihydrospiro[cyclopropane-1,3′-pyrrolo[3,2-c]pyridin]-6′-yl)acetamide trifluoroacetate]	10 to 100
CC(=O)Nc1cc2c(cn1)C1(CCOCC1)CN2c1ccnc(C(C)(F)F)n1 [Example 47, N-(1′-(2-(1,1-difluoroethyl)pyrimidin-4-yl)-1′,2,2′,3,5,6-hexahydrospiro[pyran-4,3′-pyrrolo[3,2-c]pyridin]-6′-yl)acetamide]	≥ 1000
CC(=O)Nc1cc2c(cn1)C1(CCCC1)CN2c1cccc(C(C)(F)F)n1 [Example 45, N-(1′-(6-(1,1-difluoroethyl)pyridin-2-yl)-1′,2′-dihydrospiro[cyclopentane-1,3′-pyrrolo[3,2-c]pyridin]-6′-yl)acetamide]	100 to 1000
COC(C)c1nccc(N2CC3(CC3)c3cnc(NC(C)=O)cc32)n1 (stereo not shown) [Example 131, N-(1′-(2-(1-methoxyethyl)pyrimidin-4-yl)-1′,2′-dihydrospiro[cyclopropane-1,3′-pyrrolo[3,2-c]pyridin]-6′-yl)acetamide]	10 to 100
CC(=O)Nc1cc2c(cn1)C1(CCC1)CN2c1nccc(C(C)(F)F)n1 [Example 40, N-(1′-(4-(1,1-difluoroethyl)pyrimidin-2-yl)-1′,2′-dihydrospiro[cyclobutane-1,3′-pyrrolo[3,2-c]pyridin]-6′-yl)acetamide]	10 to 100
CC(=O)Nc1cc2c(cn1)C1(CC1)CN2c1cc(C)nc(C2CCCN(C)C2)n1 (stereo not shown) [Example 117, N-(1′-(6-methyl-2-(1-methylpiperidin-3-yl)pyrimidin-4-yl)-1′,2′-dihydrospiro[cyclopropane-1,3′-pyrrolo[3,2-c]pyridin]-6′-yl)acetamide]	≥ 1000
CC(=O)Nc1cc2c(cn1)C1(CC1)CN2c1cc(C)ncn1 [Example 27, N-(1′-(6-methylpyrimidin-4-yl)-1′,2′-dihydrospiro[cyclopropane-1,3′-pyrrolo[3,2-c]pyridin]-6′-yl)acetamide]	10 to 100
CC(=O)Nc1cc2c(cn1)C1(CC1)CN2c1cc(C)nc(-c2cnn(C3CNC3)c2)n1 [Example 269, N-(1′-(2-(1-(azetidin-3-yl)-1H-pyrazol-4-yl)-6-methylpyrimidin-4-yl)-1′,2′-dihydrospiro[cyclopropane-1,3′-pyrrolo[3,2-c]pyridin]-6′-yl)acetamide trifluoroacetate]	100 to 1000
CC(=O)Nc1cc2c(cn1)C1(CCNCC1)CN2c1ccnc(C(C)(F)F)n1 [Example 271, N-(1′-(2-(1,1-difluoroethyl)pyrimidin-4-yl)-1′,2′-dihydrospiro[piperidine-4,3′-pyrrolo[3,2-c]pyridin]-6′-yl)acetamide]	≥ 1000
CC(=O)Nc1cc2c(cn1)C1(CC1)CN2c1ccnc(C2COC2)n1 [Example 3, N-(1′-(2-(oxetan-3-yl)pyrimidin-4-yl)-1′,2′-dihydrospiro[cyclopropane-1,3′-pyrrolo[3,2-c]pyridin]-6′-yl)acetamide]	10 to 100
CC(=O)Nc1cc2c(cn1)C1(CC1)CN2c1cc(C)cc(-c2cnn(C3CNC3)c2)n1 [Example 268, N-(1′-(6-(1-(azetidin-3-yl)-1H-pyrazol-4-yl)-4-methylpyridin-2-yl)-1′,2′-dihydrospiro[cyclopropane-1,3′-pyrrolo[3,2-c]pyridin]-6′-yl)acetamide trifluoroacetate]	100 to 1000
CC(=O)Nc1cc2c(cn1)C1(CC1)CN2c1cc(C)nc(C2CC3CCC2O3)n1 (stereo not shown) [Example 102, N-(1′-(2-(7-oxabicyclo[2.2.1]heptan-2-yl)-6-methylpyrimidin-4-yl)-1′,2′-dihydrospiro[cyclopropane-1,3′-pyrrolo[3,2-c]pyridin]-6′-yl)acetamide trifluoroacetate]	10 to 100
CC(=O)Nc1cc2c(cn1)C1(CCCC1)CN2c1ccnc(C(C)(F)F)n1 [Example 44, N-(1′-(2-(1,1-difluoroethyl)pyrimidin-4-yl)-1′,2′-dihydrospiro[cyclopentane-1,3′-pyrrolo[3,2-c]pyridin]-6′-yl)acetamide]	100 to 1000
CC(=O)Nc1cc2c(cn1)C1(CC1)CN2c1cc(C)nc2cc(C)nn12 [Example 28, N-(1′-(2,5-dimethylpyrazolo[1,5-a]pyrimidin-7-yl)-1′,2′-dihydrospiro[cyclopropane-1,3′-pyrrolo[3,2-c]pyridin]-6′-yl)acetamide]	≥ 1000
CC(=O)Nc1cc2c(cn1)C1(CCNCC1)CN2c1nccc(C(C)(F)F)n1 [Example 270, N-(1′-(4-(1,1-difluoroethyl)pyrimidin-2-yl)-1′,2′-dihydrospiro[piperidine-4,3′-pyrrolo[3,2-c]pyridin]-6′-yl)acetamide]	≥ 1000
CC(=O)Nc1cc2c(cn1)C1(CCNCC1)CN2c1cccc(C(C)(F)F)n1 [Example 272, N-(1′-(6-(1,1-difluoroethyl)pyridin-2-yl)-1′,2′-dihydrospiro[piperidine-4,3′-pyrrolo[3,2-c]pyridin]-6′-yl)acetamide]	≥ 1000
CC(=O)Nc1cc2c(cn1)C1(CC1)CN2c1cc(C)cc(-c2cnn(C)c2C(F)F)n1 [Example 262, N-(1′-(6-(5-(difluoromethyl)-1-methyl-1H-pyrazol-4-yl)-4-methylpyridin-2-yl)-1′,2′-dihydrospiro[cyclopropane-1,3′-pyrrolo[3,2-c]pyridin]-6′-yl)acetamide trifluoroacetate]	10 to 100

same assay, conditions: TR-FRET probe displacement, JH2 domain of human Tyk2

Structure (SMILES)	IC50 [nM]
CC(=O)Nc1cc2c(cn1)C1(CC1)CN2c1cc(-c2cnn(CC#N)c2)nc(C(C)(F)F)n1 [Example 393, N-(1′-(6-(1-(cyanomethyl)-1H-pyrazol-4-yl)-2-(1,1-difluoroethyl)pyrimidin-4-yl)-1′,2′-dihydrospiro[cyclopropane-1,3′-pyrrolo[3,2-c]pyridin]-6′-yl)acetamide]	≤ 10
CC(=O)Nc1cc2c(cn1)C1(CC1)CN2c1cc(C)nc(OCC2CCO2)n1 (stereo not shown) [Example 380, N-(1′-(6-methyl-2-(oxetan-2-ylmethoxy)pyrimidin-4-yl)-1′,2′-dihydrospiro[cyclopropane-1,3′-pyrrolo[3,2-c]pyridin]-6′-yl)acetamide trifluoroacetate]	10 to 100
